The text below walks through data of ChEMBL document CHEMBL4368888, “Design, synthesis and biological evaluation of tryptamine salicylic acid derivatives as potential antitumor agents” (Medchemcomm, 2019).

Holding throughout (format): functional, cell-based
One assay concerns HepG2. Kind of assay: Antiproliferative activity against human HepG2 cells after 48 hrs by MTT assay. The conditions noted are these: HepG2, 48 h. On the technique in general: Tetrazolium dyes change colour on reduction, which living cells bring about.
A further assay deals with MCF7. Kind of assay: Antiproliferative activity against human MCF7 cells after 48 hrs by MTT assay. Particulars: MCF7, 48 h.
The test system of another assay is A549. Put plainly: Antiproliferative activity against human A549 cells after 48 hrs by MTT assay. The conditions noted are these: A549, 48 h.
The test system of the next assay is MGC-803. Put plainly: Antiproliferative activity against human MGC803 cells after 48 hrs by MTT assay. Particulars: MGC-803, 48 h.
The next assay relates to HeLa. Kind of assay: Antiproliferative activity against human HeLa cells after 48 hrs by MTT assay.

For orientation: IC50 means the point on the concentration scale where inhibition reaches its midpoint. High values mean a need for much substance, low ones inhibition by little substance.

`COc1ccc2[nH]cc(CCNC(=O)c3ccc(C)cc3O)c2c1`: the IC50 in the assay with HepG2 was 80 µM; with MCF7, more than 100 µM; with A549, more than 100 µM; with MGC-803, 59 µM; in the assay on HeLa it was 80 µM.
As for `Cc1cccc(C(=O)NCCc2c[nH]c3ccc(F)cc23)c1O`, the IC50 was more than 100 µM with HepG2; more than 100 µM in the assay on MCF7; 67 µM in the assay with A549; 52 µM with MGC-803; more than 100 µM in the assay with HeLa.
Regarding `Cc1ccc2[nH]cc(CCNC(=O)c3cc(Br)ccc3O)c2c1`, the 50% inhibitory concentration (IC50) with HepG2 was 93 µM; in the assay with MCF7, 89 µM; in the assay on A549, 80 µM; with MGC-803, 61 µM; in the assay on HeLa, more than 100 µM.
For `Cc1ccc2[nH]cc(CCNC(=O)c3ccccc3O)c2c1`, the IC50 with HepG2 was more than 100 µM; in the assay with MCF7, 93 µM; in the assay on A549, more than 100 µM; in the assay with MGC-803 it was 45 µM; in the assay on HeLa, more than 100 µM.
In the case of `O=C(NCCc1c[nH]c2ccccc12)c1cc(Br)ccc1O`, the IC50 with HepG2 is more than 100 µM; in the assay with MCF7, more than 100 µM; in the assay on A549 it was more than 100 µM; with MGC-803, 78 µM; with HeLa it was more than 100 µM.
In the case of `Cc1ccc(C(=O)NCCc2c[nH]c3ccccc23)c(O)c1`, the IC50 was more than 100 µM in the assay with HepG2; more than 100 µM in the assay with MCF7; more than 100 µM in the assay on A549; 80 µM with MGC-803; more than 100 µM with HeLa.
As to `Cc1cccc(C(=O)NCCc2c[nH]c3ccccc23)c1O`, the 50% inhibitory concentration (IC50) was more than 100 µM with HepG2; more than 100 µM with MCF7; more than 100 µM in the assay with A549; 63 µM with MGC-803; 82 µM with HeLa.
Consider `O=C(NCCc1c[nH]c2ccccc12)c1ccccc1O`, for which the half-inhibitory concentration (IC50) with HepG2, in the assay on MCF7, with A549, in the assay with MGC-803 and in the assay on HeLa was more than 100 µM in each case.
`O=c1[nH]cc(F)c(=O)[nH]1` [FLUOROURACIL]: the IC50 with HepG2 is 68 µM; in the assay on A549 it was more than 100 µM; with MGC-803, 58 µM; with HeLa, 50 µM.
As to `O=C(NCCc1c[nH]c2ccc(F)cc12)c1ccc(Cl)cc1O`, the IC50 in the assay on HepG2 was more than 100 µM; with MCF7 it was more than 100 µM; in the assay with A549, more than 100 µM; in the assay with MGC-803, 62 µM; with HeLa, more than 100 µM.
In the case of `O=C(NCCc1c[nH]c2ccc(F)cc12)c1ccccc1O`, the half-maximal inhibitory concentration (IC50) in the assay on HepG2 is more than 100 µM; with MCF7 it was more than 100 µM; in the assay with A549, more than 100 µM; with MGC-803 it was 63 µM; in the assay with HeLa it was more than 100 µM.
`O=C(NCCc1c[nH]c2ccccc12)c1cc(Cl)ccc1O`: the IC50 in the assay on HepG2 was more than 100 µM; in the assay with MCF7 it was more than 100 µM; in the assay on A549 it was more than 100 µM; in the assay on MGC-803, 74 µM; in the assay on HeLa, more than 100 µM.
On to `Cc1ccc(C(=O)NCCc2c[nH]c3ccc(C)cc23)c(O)c1`, for which the IC50 was more than 100 µM in the assay on HepG2; 60 µM with MCF7; 75 µM in the assay on A549; 38 µM in the assay on MGC-803; more than 100 µM in the assay on HeLa.
In the case of `Cc1ccc(C(=O)NCCc2c[nH]c3ccc(Cl)cc23)c(O)c1`, the concentration for half-maximal inhibition (IC50) in the assay with HepG2 is more than 100 µM; in the assay with MCF7 it was 73 µM; with A549, 63 µM; in the assay on MGC-803 it was 37 µM; with HeLa, 64 µM.
The matching figures for `Cc1ccc2[nH]cc(CCNC(=O)c3ccc(Cl)cc3O)c2c1`: 98 µM, more than 100 µM, 68 µM, 47 µM and 93 µM.
For `O=C(NCCc1c[nH]c2ccccc12)c1ccc(Cl)cc1O`, in that order: more than 100 µM, more than 100 µM, more than 100 µM, 80 µM and more than 100 µM.
In the case of `Cc1ccc(C(=O)NCCc2c[nH]c3ccc(Br)cc23)c(O)c1`, the concentration for half-maximal inhibition (IC50) in the assay with HepG2 came to 80 µM; in the assay with MCF7, 80 µM; in the assay on A549 it was 61 µM; in the assay with MGC-803, 48 µM; in the assay with HeLa, 61 µM.
With `O=C(NCCc1c[nH]c2ccc(Cl)cc12)c1cc(Br)ccc1O`, the IC50 in the assay on HepG2 was more than 100 µM; in the assay with MCF7 it was 75 µM; in the assay with A549, 63 µM; with MGC-803, 35 µM; in the assay with HeLa, 85 µM.
For `COc1ccc2[nH]cc(CCNC(=O)c3cc(Br)ccc3O)c2c1`, in that order: more than 100 µM, more than 100 µM, more than 100 µM, 62 µM and 74 µM.
For the molecule `COc1ccc2[nH]cc(CCNC(=O)c3ccccc3O)c2c1`, the IC50 in the assay on HepG2 was more than 100 µM; in the assay with MCF7 it was more than 100 µM; with A549, more than 100 µM; in the assay on MGC-803 it was 59 µM; in the assay with HeLa, 82 µM.
As for `O=C(NCCc1c[nH]c2ccc(Cl)cc12)c1ccccc1O`, the IC50 is more than 100 µM with HepG2; 75 µM in the assay with MCF7; 60 µM in the assay with A549; 35 µM in the assay with MGC-803; 81 µM in the assay on HeLa.
The matching figures for `Cc1ccc2[nH]cc(CCNC(=O)c3cccc(C)c3O)c2c1`: 64 µM, 62 µM, 50 µM, 38 µM and 61 µM.
For `O=C(NCCc1c[nH]c2ccc(Br)cc12)c1cc(Cl)ccc1O`, in that order: 87 µM, 73 µM, 63 µM, 63 µM and 80 µM.
Consider `COc1ccc2[nH]cc(CCNC(=O)c3cc(Cl)ccc3O)c2c1`, for which the IC50 is 75 µM with HepG2; more than 100 µM in the assay with MCF7; more than 100 µM with A549; 55 µM in the assay on MGC-803; more than 100 µM in the assay with HeLa.
For the molecule `O=C(NCCc1c[nH]c2ccc(F)cc12)c1cc(Cl)ccc1O`, the IC50 with HepG2 was more than 100 µM; in the assay with MCF7, more than 100 µM; in the assay on A549 it was 53 µM; in the assay on MGC-803 it was 53 µM; in the assay with HeLa it was more than 100 µM.
In the case of `O=C(NCCc1c[nH]c2ccc(F)cc12)c1cc(Br)ccc1O`, the IC50 in the assay with HepG2 was more than 100 µM; with MCF7 it was more than 100 µM; in the assay on A549 it was 77 µM; in the assay with MGC-803, 80 µM; with HeLa, 76 µM.
For the molecule `O=C(NCCc1c[nH]c2ccc(Br)cc12)c1ccccc1O`, the IC50 with HepG2 was more than 100 µM; with MCF7, 80 µM; in the assay on A549, 59 µM; in the assay with MGC-803, 37 µM; in the assay on HeLa, 79 µM.
For `O=C(NCCc1c[nH]c2ccc(Br)cc12)c1cc(Br)ccc1O`, the IC50 with HepG2 was more than 100 µM; with MCF7, more than 100 µM; with A549, 62 µM; with MGC-803 it was 80 µM; in the assay with HeLa it was more than 100 µM.
With `O=C(NCCc1c[nH]c2ccc(Cl)cc12)c1cc(Cl)ccc1O`, the IC50 in the assay on HepG2 was 89 µM; in the assay on MCF7 it was 80 µM; in the assay on A549, 62 µM; in the assay on MGC-803, 31 µM; in the assay with HeLa, 80 µM.
As to `O=C(NCCc1c[nH]c2ccc(Br)cc12)c1ccc(Cl)cc1O`, the IC50 with HepG2 came to 92 µM; with MCF7 it was 98 µM; in the assay with A549 it was 63 µM; in the assay on MGC-803, 43 µM; with HeLa, 71 µM.
For `COc1ccc2[nH]cc(CCNC(=O)c3ccc(Cl)cc3O)c2c1`, in that order: more than 100 µM, more than 100 µM, more than 100 µM, 56 µM and 71 µM.
For `Cc1cccc(C(=O)NCCc2c[nH]c3ccc(Cl)cc23)c1O`, in that order: 62 µM, 70 µM, 48 µM, 56 µM and 56 µM.
Regarding `Cc1ccc(C(=O)NCCc2c[nH]c3ccc(F)cc23)c(O)c1`, the IC50 in the assay on HepG2 was more than 100 µM; in the assay with MCF7, more than 100 µM; with A549, more than 100 µM; in the assay on MGC-803, 60 µM; in the assay with HeLa it was more than 100 µM.
In the case of `O=C(NCCc1c[nH]c2ccc(Cl)cc12)c1ccc(Cl)cc1O`, the IC50 with HepG2 turned out to be 90 µM; in the assay on MCF7, 69 µM; in the assay on A549 it was 46 µM; with MGC-803, 34 µM; in the assay with HeLa it was 64 µM.
The matching figures for `Cc1ccc2[nH]cc(CCNC(=O)c3cc(Cl)ccc3O)c2c1`: more than 100 µM, 79 µM, 89 µM, 42 µM and more than 100 µM.
Regarding `COc1ccc2[nH]cc(CCNC(=O)c3cccc(C)c3O)c2c1`, the IC50 in the assay with HepG2 is 85 µM; in the assay on MCF7, 97 µM; in the assay on A549 it was more than 100 µM; in the assay with MGC-803, 43 µM; with HeLa it was 42 µM.
